Columns and labels:
[1] = tested on: pigs; conditions: diets with 0.5% or 1% benzoic acid, 32 + 91 days; statement covers all animals
Method: Room temperature was initially 27° C. and was lowered weekly by about 2° C. until 21-22° C.

[2] = tested on: growing-fattening pig; test: Bone resistance: maximal breaking force of metacarpal diaphysis sections under compression, after long-term feeding; type: in vivo; conditions: for Resistance (Newton at the breaking point), right metacarpals: mean ± SD
Text: The term “bone resistance” as used herein denotes the maximal force in measured in Newton (N) necessary to break the bone determined by a compression machine.
(§1) Environment humidity percentage throughout the experiment was 50%. […] Both diets were in mash form.
(§2) All the diets were given in a mash form.
(§3) At the end of the observation all the animals were slaughtered after electronarcosis for the determination of the bone resistance and mineralization. The collected bones were the right internal and external metacarpal. Samples were prepared from each of the collected bones immediately after slaughter. After careful removal of the soft tissue, a diaphysis section was obtained by sawing each bone. The obtained sections of about 3.5-cm long were immediately subjected to compression in order to determine the force in Newton necessary to break them (maximal-breaking force at the fracture point). The measurements were performed with a LR10K compression machine, using a XLC/10K/A1 force captor and a compression device TH23-196/AL (Lloyd Instruments, Fareham, UK). The broken bones were then dried in a drying oven at 105° C. during 24 hours and the dry matter (DM) was used for the determination of ash content, which was measured after 48 h incineration at 550° C. in a muffle furnace.
(§4) Statistical treatment of the results involved the calculation of the mean and of the standard deviation as well as a two-factor hierarchical analysis of variance. The mathematical model was: Yijk=μ+Ai+Bij+Zijk, where μ is the mean, Ai is the diet effect, Bij is the combined effect of the diet and animal or pen and Zijk is the residual term. The analysis of variance was followed by a Duncan multiple range test when a significant Ai effect without Bij effect was observed (Statistical methods, 8th edition, Iowa University Press, Ames, Snedecor and Cochran, 1989). These calculations were performed using the Statistical Analysis System (SAS, 1990).

[3] = tested on: growing-fattening pig; test: Bone mineralization: ash content of dried metacarpal bone after incineration, after long-term feeding; type: in vivo; conditions: for Mineralization (% of ash in DM), right metacarpals: mean ± SD of 32 measurements
Method: The term “bone mineralization” as used herein denotes the percentage of ash after incineration of the bone compared to the dried bone matter (DM). Dry matter is defined as the weight of the bone sample after 24 hour in a drying oven compared to the initial weight of the sample.
as §1, §2, §3, §4

[4] = group B2: 0% 32 days, then 1% benzoic acid 91 days
[5] = group C2: 0.5% 32 days, then 0.5% benzoic acid 91 days
[6] = group D2: 0.5% 32 days, then 1% benzoic acid 91 days

Structure (SMILES): O=C(O)c1ccccc1 [benzoic acid]
- Natural mortality during the experiment [1]: no natural mortality was observed
- Symptoms of illness during the experiment [1]: did not present any symptoms of illness
- Bone resistance versus controls (in words) ([2]; all the supplemented groups (B2, C2, D2)): significantly increased
- Resistance (Newton at the breaking point), right metacarpals ([2]; group B2: 0% benzoic acid in diet 32 days, then 1% for 91 days): 625 ± 163^(2)bd Newton
- Resistance (Newton at the breaking point), right metacarpals ([2]; group C2: 0.5% benzoic acid in diet 32 days, then 0.5% for 91 days): 621 ± 172^(2)d Newton
- Resistance (Newton at the breaking point), right metacarpals ([2]; group D2: 0.5% benzoic acid in diet 32 days, then 1% for 91 days): 597 ± 192^(2)d Newton
- Mineralization relative to controls (A2 = 100) [3, 4]: (102)
- Mineralization (% of ash in DM), right metacarpals [3, 4]: 60.26 ± 1.31^(1)d % of ash in DM
- Ash content of the bones versus controls (in words) ([3]; group C2 (0.5% benzoic acid throughout), P<0.07): numerically higher
- Mineralization relative to controls (A2 = 100) [3, 5]: (102)
- Mineralization (% of ash in DM), right metacarpals [3, 5]: 60.06 ± 1.33^(1)cd* % of ash in DM
- Mineralization relative to controls (A2 = 100) [3, 6]: (102)
- Mineralization (% of ash in DM), right metacarpals [3, 6]: 60.14 ± 1.09^(1)d % of ash in DM
- Ash content of the bones versus controls (in words) ([3]; groups B2 and D2 (1% benzoic acid during 91 days)): significantly higher
